Measured values from US11034725B2, “Compositions and methods for treating cardiovascular disease” (Genentech, Inc., priority 2016, dated 2021).
Entries after “also recorded” stand apart in the source; their conditions may differ. Like-named read-outs stand apart in the source and are kept apart here. Bridge positions count the residues as written; N and C are the ends. Square brackets hold non-standard residues; d marks the D form. Peptide text beside a SMILES is read from it. hArg = N=C(N)NCCCC[C@H](N)C(=O)O

Columns and labels:
PCSK9Δhelix [1] = biological target: T1, PCSK9Δhelix (Homo sapiens, UniProt Q8NBP7); assay: PCSK9Δhelix/Ab20 TR-FRET binding assay
T1 construct: Human PCSK9 construct M1-Q692 with an engineered TEV site (residue deletion Y166, R167); made in house; host or cells: CHO

PCSK9Δhelix [2] = biological target: T1, PCSK9Δhelix; assay: Surface plasmon resonance biosensor-based affinity analysis (Example 4); type: binding; conditions: for Kd: Table 7, Target PCSK9Δhelix, SPR at 20° C., read-out: Kd
PCSK9 [3] = biological target: T2, PCSK9 (Homo sapiens, UniProt Q8NBP7); assay: Phage competition ELISA; type: binding; conditions: binding of peptide-displaying phage to PCSK9
Procedure, shortened: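 Fixed sub-saturating peptide-phage concentration (80% of max binding signal) mixed with serially diluted synthetic peptides in PBT, added to plates bearing immobilized biotinylated PCSK9 or PCSK9Δhelix, 1 h at room temperature. Bound phage detected with anti-M13-HRP at OD450 nm; IC50 from curve fit, 3 independent repeats.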

PCSK9 [4] = biological target: T2, PCSK9; assay: Cell surface LDLR assay with HepG2 cells; type: cell-based; conditions: for EC50 / surface LDLR levels restored: HepG2 cells; for EC50: 15 μg/mL PCSK9, 4 h, FACS; for surface LDLR levels restored: maximal restoration, percent of control without PCSK9
Description: HepG2 cells (ATCC; Manassas, Va.) were seeded into 48 well plates (Corning; Corning, N.Y.) at 1×10^5 cells per well in high glucose medium (DMEM, Gibco; Carlsbad, Calif.) containing 2 mM glutamine (Sigma), penicillin/streptomycin (Gibco) and 10% FBS (Sigma; St. Louis, Mo.) and incubated overnight. Then the medium was changed to DMEM containing 10% lipoprotein deficient serum (LPDS, Sigma). After 24 h, 15 μg/mL PCSK9 was incubated with peptides or Fab33 for 30 min, added to the cells and incubated at 37° C. for 4 h. Cells were rinsed with PBS and detached using Cell Dissociation Buffer in PBS (Gibco). After centrifugation, the resuspended cells were incubated with 1:20 anti LDLR antibody (Progen Biotechnik; Heidelberg, Germany) on ice for 10 min. The samples were then washed with PBS and incubated with 1:200 diluted goat anti mouse IgG (H+L) Alexa Fluor 488 (Invitrogen; Carlsbad, Calif.) on ice for 5 min. After two PBS washes, cells were re suspended in PBS containing 2.5 μg/mL of propidium iodide and analyzed on a dual laser flow cytometer (FACScan, Becton Dickinson; Franklin Lakes, N.J.). Relative fluorescence units (RFUs) were used to quantify LDLR expression levels on the HepG2 cell surface. Cell surface LDLR levels were expressed as percent of LDLR levels measured in the absence of PCSK9 (=control).
The effect of Compound 229 on PCSK9-mediated LDL receptor degradation was measured in a HepG2 cell assay as previously described (Zhang et al., J Biol Chem. 2014 Jan. 10; 289(2):942-55). Peptides at various concentrations were preincubated with 15 μg/mL PCSK9 in the presence of 0.5% DMSO for 30 min prior to the addition to cells. After a 4 h incubation, the cells were processed for measurements of LDL receptor surface levels by flow cytometry as described (Zhang et al., J Biol Chem. 2014 Jan. 10; 289(2):942-55) (FIG. 37).

PCSK9 [5] = biological target: T2, PCSK9; assay: PCSK9/EGF(A) TR-FRET binding assay
PCSK9Δhelix [6] = biological target: T1, PCSK9Δhelix; assay: Phage competition ELISA; conditions: binding of peptide-displaying phage to PCSK9Δhelix
Description: The sequences of selected clones were fused to the N-terminus of M13 major coat protein (p8) using Kunkel mutagenesis method (Kunkel et al., Methods Enzymol 154, 367-82). The resulting construct was transformed to E. Coli. XL1 blue, single colony was grown in 1 mL 2YT supplemented with 50 μg/mL carbenicillin, 10 μg/mL Tetracycline and M13 KO7 helper phage at 37° C. for 2 h, Kanamycin was added to final concentration of 25 μg/mL, growth was continued at 37° C. for 6 h. The culture was transferred to 30 mL 2YT supplemented with 50 μg/mL carbenicillin and 25 μg/mL kanamycin and grown at 37° C. overnight. The next day, the phage was harvested and purified using the standard protocol (Tonikian et al. Nat Protoc. 2007; 2(6):1368-86). […] The bound phage was detected with anti-M13-HRP and the ELISA signal was read at OD450 nm. […] Sub-saturating phage concentration that gave 80% of maximum binding signal was determined by the binding curve.
IC50 measurements were performed by mixing a fixed sub-saturating concentration of peptide-displaying phage with a serial dilution of synthetic peptides in PBT buffer. […] The plates were then washed 10 times with PBT buffer and the bound phage was detected by anti-M13-HRP. […]

His-EGF(A)-Fc = His-EGF(A)-Fc TR-FRET counterscreen
PCSK9 [7] = biological target: T2, PCSK9; assay: SPR affinity measurements of peptide binding (Example 8); conditions: Example 8, with standard error; read-out: KD, binding affinity to PCSK9 in SPR experiments
PCSK9 [8] = biological target: T2, PCSK9; assay: PCSK9/LDLR-Fc TR-FRET assay (LDLR assay); type: binding; conditions: for IC50: Table 11, LDLR-Fc, average ±S.D. of three experiments
Description: In black 1536-well assay plates (MaKO, Aurora® Microplates, Whitefish, Mont.), 40 nL of peptide in DMSO were preincubated with 2 μL His-tagged PCSK9 plus anti-His-allophycocyanin in assay buffer (50 mM Tris-HCl, pH 7.5, 150 mM NaCl, 2 mM CaCl2, 0.01% Tween®-20, 0.1% bovine gamma globulins, and protease inhibitor cocktail) for 30 min. Then 2 μL of Fc-tagged ligand and anti-Fc-europium in assay buffer were added and allowed to incubate for 2 h. The PCSK9 and ligand conditions for each assay are as follows: 10 nM C-terminal (His)8-tagged PCSK9 (“(His)8” disclosed as SEQ ID NO: 304) and 12 nM EGF(A)-Fc for the EGF(A) assay, 10 nM C-terminal (His)8-tagged PCSK9 (“(His)8” disclosed as SEQ ID NO: 304) and 2.5 nM LDLR-Fc for the LDLR assay, 1.25 nM C-terminal (His)8-tagged PCSK9Δhelix (“(His)8” disclosed as SEQ ID NO: 304) and 0.75 nM Ab20 for the Ab20 assay, and 2 nM His-EGF(A)-Fc alone for the counterscreen. In all assays, anti-His-allophycocyanin and anti-Fc-europium were used at 20 nM and 2 nM, respectively. Fluorescence was measured with excitation at 340 nm and emission at 671 nm and 618 nm. The TR-FRET ratio was calculated as fluorescence at 671 nm/fluorescence at 618 nm. The ratios were normalized to controls and plotted against peptide concentration to determine IC50 values (Screener Analyzer, Genedata, Basel, CH). The peptides were evaluated in three separate experiments per assay with 10-point titrations and n=2 per concentration. The values presented are the average ±S.D. of three independent experiments.

[9] = TR-FRET, Example 7, read-out: PCSK9Δhelix/Ab20 IC50
[10] = TR-FRET, Table 8E, additional compounds, read-out: PCSK9Δhelix/Ab20 IC50
[11] = Table 11, average ±S.D. of three experiments, read-out: Ab20 IC50
[12] = TR-FRET, Table 8E, additional compounds, read-out: PCSK9/EGF(A) IC50
[13] = Table 11, average ±S.D. of three experiments, read-out: EGF(A) IC50
[14] = TR-FRET counterscreen, Table 8E, additional compounds

Molecule	inhibition in the PCSK9Δhelix/Ab20 binding assay (PCSK9Δhelix [1])	IC50 (PCSK9Δhelix [1]; [9]) [nM]	Kd range for PCSK9Δhelix binding (PCSK9Δhelix [2])	Kd (PCSK9Δhelix [2]) [nM]	EC50 (PCSK9 [4]) [nM]	surface LDLR levels restored (PCSK9 [4]) [%]	inhibition in the PCSK9/EGF(A) binding assay (PCSK9 [5])	IC50 in phage competition ELISA (PCSK9Δhelix [6])	IC50 (His-EGF(A)-Fc; counterscreen, Example 7) [nM]	IC50 (PCSK9Δhelix [1]; [10]) [nM]	IC50 (PCSK9Δhelix [1]; [11]) [nM]	Kd (PCSK9 [7]) [nM]	inhibition of LDLR-Fc binding to PCSK9 (PCSK9 [8])	IC50 (PCSK9 [8]) [nM]	IC50 (PCSK9 [5]; [12]) [nM]	IC50 (PCSK9 [5]; [13]) [nM]	IC50 (His-EGF(A)-Fc; [14]) [nM]	other results
CC[C@H](C)[C@@H]1NC(=O)[C@H](CCCNC(=N)N)NC(=O)[C@H](CCC(N)=O)NC(=O)[C@H](CC(C)C)NC(=O)[C@H](CC(N)=O)NC(=O)[C@H](Cc2c[nH]c3ccccc23)NC(=O)[C@@H]2CCCN2C(=O)[C@H](CC(C)C)NC(=O)[C@H](CCCNC(=N)N)NC(=O)[C@@H](NC(=O)CNC(=O)[C@H](CO)NC(=O)CNC(=O)[C@@H](NC(=O)[C@H](Cc2c[nH]c3ccccc23)NC(=O)[C@H](CC(=O)O)NC(=O)[C@H](CC(C)C)NC(=O)[C@H](Cc2ccc(O)cc2)NC(=O)[C@H](CCC(=O)O)NC(=O)[C@H](CCC(=O)O)NC(=O)[C@H](Cc2c[nH]c3ccccc23)NC(=O)[C@H](CO)NC(=O)[C@@H](NC(=O)[C@H](Cc2ccccc2)NC(=O)[C@@H](NC(=O)[C@@H](NC(C)=O)[C@@H](C)O)C(C)C)[C@@H](C)O)C(C)C)CSSC[C@@H](C(N)=O)NC(=O)[C@@H]2CCCN2C(=O)[C@H](CC(C)C)NC(=O)CNC1=O [Compound 19] (Ac-TVFTSWEEYLDWVGSGCRLPWNLQRIGLPC-NH2; disulfide 17-30)	potent inhibitors	2	sub-nanomolar range	0.0989	~500	100	potent inhibitor	single digit nanomolar range	> 50000	–	–	–	–	–	–	–	–	IC50 in phage competition ELISA (PCSK9 [3]; listed as Pep2-8_K9gvpep4): low nanomolar range; also recorded: single digit nanomolar range; IC50 (PCSK9 [5]; TR-FRET, Example 7, read-out: PCSK9/EGF(A) IC50): 9 nM
CC[C@H](C)[C@H](NC(=O)[C@H](CCCCNC(=N)N)NC(=O)[C@@H](NC(=O)[C@H](CC(C)C)NC(=O)[C@H](CC(N)=O)NC(=O)[C@H](Cc1c[nH]c2ccccc12)NC(=O)CNC(=O)[C@@H]1CCCN1C(=O)[C@H](Cc1ccccc1)NC(=O)[C@H](C)NC(=O)[C@H](Cc1ccccc1)NC(=O)[C@H](CO)NC(C)=O)C(C)C)C(=O)NCC(=O)N[C@@H](CC(C)C)C(=O)N[C@@H](CC(C)C)C(=O)N[C@@H](CCCNC(=N)N)C(N)=O [Compound 228] (Ac-SFAFPGWNLV[hArg]IGLLR-NH2)	–	–	–	–	–	–	inhibited	–	–	13000	1370 ± 120	2800 ± 50	inhibited	30400 ± 1100	1300	13200 ± 800	≥ 50000	–
CC[C@H](C)[C@H](NC(=O)[C@H](CCCCNC(=N)N)NC(=O)[C@@H](NC(=O)[C@H](CC(C)C)NC(=O)[C@H](CC(N)=O)NC(=O)[C@H](Cc1c[nH]c2ccccc12)NC(=O)CNC(=O)[C@@H]1CCCN1C(=O)[C@H](Cc1ccccc1)NC(=O)[C@H](CO)NC(=O)[C@H](CCC(=O)O)NC(=O)[C@H](CCSC)NC(C)=O)C(C)C)C(=O)NCC(=O)N[C@@H](CC(C)C)C(=O)N[C@@H](CC(C)C)C(=O)N[C@@H](CCCNC(=N)N)C(N)=O [Compound 229] (Ac-MESFPGWNLV[hArg]IGLLR-NH2)	inhibition	–	–	–	–	≤ 70	inhibited; also recorded: inhibition	–	–	8100	840 ± 80	940 ± 10	inhibited; also recorded: inhibition	25000 ± 800	810	8300 ± 100	≥ 50000	improvement of affinity to PCSK9Δhelix versus Compound 192 (PCSK9Δhelix [1]; Table 11): more than 6 fold; inhibition of PCSK9-mediated LDLR degradation in HepG2 cells (PCSK9 [4]): concentration-dependent manner; also recorded: concentration-dependent inhibition; response in the His-EGF(A)-Fc counterscreen (His-EGF(A)-Fc): without interference
Ac-TVFTSWEEYLDWVGSGDLMPWNLVRIGLLR-NH2 [Compound 20]	low nanomolar concentrations	1	sub-nanomolar range	0.366	1000 to 5000	100	significantly improved relative to Pep2-8	single digit nanomolar range	> 50000	–	–	–	–	–	–	–	–	IC50 in phage competition ELISA (PCSK9 [3]; listed as Pep2-8_K9gvpep7): low nanomolar range; also recorded: single digit nanomolar range
